The source of these data is patent publication US7320981B2, “Variolin derivatives as anti-cancer agents” (Pharma Mar, S.A., priority 2000, dated 2008).

One data set has as its system HT-29. The data set can be described thus: SRB cell growth/viability assay, HT-29.
Details: not given
The text has this:
(§1) A colorimetric type of assay, using sulforhodamine B (SRB) reaction has been adapted for a quantitative measurement of cell growth and viability: see Skehan, P. A. et al. J. Natl. Cancer Inst., 1990, 82, 1107-1112. This form of the assay employs 96 well cell culture microplates of 9 mm diameter (Faircloth, G. T.; Stewart, D. and Clement, J. J., Journal of Tissue and Culture Methods, 1983, 11, 201-205; Mosmann, T. Journal of Immunological Methods, 1983, 65, 55-63.).
(§2) Most of the cell lines are obtained from American Type Culture Collection (ATCC) derived from different human cancer types. Cells are maintained in RPMI 1640 10% FBS, supplemented with 0.1 g/l penicillin and 0.1 g/l streptomycin sulfate and then incubated at 37° C., 5% CO2 and 98% humidity. For the experiments, cells were harvested from subconfluent cultures using trypsin and resuspended in fresh medium before plating.
(§3) Cells are seeded in 96 well microtiter plates, at 5×10^3 cells per well in aliquots of 195 μl medium, and they are allowed to attach to the plate surface by growing in drug free medium for 18 hours. Afterward, samples are in aliquots of 5 pi in a ranging from 10 to 10-8 μg/ml dissolved in DMSO/EtOH (0.2% in PS buffer). After 48 hours exposure, the antitumour effect are measured by the SRB methodology: cells are fixed by adding 50 μl of cold 50% (w/v) trichloroacetic acid (TCA) and incubating for 60 minutes at 4° C. Plates are washed with deionized water and dried. 100 μl of SRB solution (0.4% w/v in 1% acetic acid) is added to each microtiter well and incubated for 10 minutes at room temperature. Unbound SRB is removed by washing with 1% acetic acid. Plates are air-dried and bound stain is solubilized with Tris buffer. Optical densities are read on an automated spectrophotometric plate reader at a single wavelength of 490 nm.
(§4) The values for mean +/− SD of data from triplicate wells are calculated Some parameters for cellular responses can be calculated: […], TGI=total growth inhibition (cytostatic effect) and LC=cell killing (cytotoxic effect).
Turning to bis-sulfinyldeoxyvariolin [Compound 20], the CC50 is more than 130 µM.

Staying with this data set, now noted: Homo sapiens, HT-29, 48 h, read-out: HT-29 GI50.
With `CS(=O)(=O)c1nccc(-c2c3cccnc3n3c(N)nccc23)n1` [Compound 6, sulfonyldeoxyvariolin], the 50% growth inhibitory concentration (GI50) (in general, the concentration that inhibits growth by half) is 29 µM.
With `CSc1nccc(-c2c3cccnc3n3c(SC)nccc23)n1` [Compound 19], the 50% growth inhibitory concentration (GI50) worked out at 5.9 µM.
Same read-out and setting: then `C[S+]([O-])c1nccc(-c2c3cccnc3n3c(N)nccc23)n1` (stereo not drawn) [Compound 22, sulfinyldeoxyvariolin], with 0.92 µM.
Same read-out and setting: then `CC(=O)N(C(C)=O)c1nccc(-c2c3cccnc3n3c(N)nccc23)n1` [Compound 23a, N′-bisacetyldeoxyvariolin], with 0.14 µM.
Take `CC(=O)Nc1nccc2c(-c3ccnc(N(C(C)=O)C(C)=O)n3)c3cccnc3n12` [Compound 23b, N′-bisacetyl-N-acetyldeoxyvariolin]: the GI50 is 0.1 µM.
`CC(=O)N(C(C)=O)c1nccc(-c2c3cccnc3n3c(N(C(C)=O)C(C)=O)nccc23)n1` [Compound 23c, N′-bisacetyl-N-bisacetyldeoxyvariolin]: the GI50 was 1.1 µM.
Take `CC(=O)Nc1nccc(-c2c3cccnc3n3c(N)nccc23)n1` [Compound 23d, N′-acetyldeoxyvariolin]: the concentration for 50% growth inhibition (GI50) was 0.63 µM.
Turning to `CC(=O)Nc1nccc(-c2c3cccnc3n3c(NC(C)=O)nccc23)n1` [Compound 23e, N′-acetyl-N-acetyldeoxyvariolin], the concentration for 50% growth inhibition (GI50) turned out to be 5.5 µM.
The same measure, in the same setting: then `Nc1nccc2c(-c3ccnc(N(C(=O)/C=C/c4ccccc4)C(=O)/C=C/c4ccccc4)n3)c3cccnc3n12` [Compound 24a, N′-biscinnamoyldeoxyvariolin], with 4.9 µM; and `O=C(C=Cc1ccccc1)Nc1nccc2c(-c3ccnc(N(C(=O)/C=C/c4ccccc4)C(=O)/C=C/c4ccccc4)n3)c3cccnc3n12` [Compound 24b, N′-biscinnamoyl-N-cinnamoyldeoxyvariolin], with 1.5 µM; and `Nc1nccc2c(-c3ccnc(NC(=O)C(F)(F)F)n3)c3cccnc3n12` [Compound 26, N′-trifluoroacetyldeoxyvariolin], with 0.8 µM.
Same read-out and setting: then `COc1nccc(-c2c3cccnc3n3c(N)nccc23)n1` [Compound 27, methoxydeoxyvariolin], with 0.17 µM; and `Nc1nccc2c(-c3ccnc(N4CCCCC4)n3)c3cccnc3n12` [Compound 28a, piperidinyldeoxyvariolin], with 5.8 µM; and `CCNc1nccc(-c2c3cccnc3n3c(N)nccc23)n1` [Compound 28b, N′-ethyldeoxyvariolin], with more than 33 µM.
Still for that read-out and setting: under `CCCCN(C)c1nccc(-c2c3cccnc3n3c(N)nccc23)n1` [Compound 28c, N′-butylmethyldeoxyvariolin] stands 2.9 µM; under `Nc1nccc2c(-c3ccnc(NCc4ccccc4)n3)c3cccnc3n12` [Compound 28d, N′-benzyldeoxyvariolin], 1.4 µM; under `COc1ccc(CNc2nccc(-c3c4cccnc4n4c(NCc5ccc(OC)cc5)nccc34)n2)cc1` [Compound 29, N′,N-bis(p-methoxybenzyl)deoxyvariolin], more than 97 µM.

The same data set, now with this note: Homo sapiens, HT-29, 48 h, read-out: HT-29 LC50.
Consider `CS(=O)(=O)c1nccc(-c2c3cccnc3n3c(N)nccc23)n1` [Compound 6, sulfonyldeoxyvariolin], for which the CC50 is more than 150 µM.
On to `CSc1nccc(-c2c3cccnc3n3c(SC)nccc23)n1` [Compound 19], for which the CC50 amounted to 29 µM.
In the case of `C[S+]([O-])c1nccc(-c2c3cccnc3n3c(N)nccc23)n1` (stereo not drawn) [Compound 22, sulfinyldeoxyvariolin], the CC50 was more than 150 µM.
Same read-out and setting: under `CC(=O)N(C(C)=O)c1nccc(-c2c3cccnc3n3c(N)nccc23)n1` [Compound 23a, N′-bisacetyldeoxyvariolin] stands 2.8 µM; under `CC(=O)Nc1nccc2c(-c3ccnc(N(C(C)=O)C(C)=O)n3)c3cccnc3n12` [Compound 23b, N′-bisacetyl-N-acetyldeoxyvariolin], 2.5 µM; under `CC(=O)N(C(C)=O)c1nccc(-c2c3cccnc3n3c(N(C(C)=O)C(C)=O)nccc23)n1` [Compound 23c, N′-bisacetyl-N-bisacetyldeoxyvariolin], 18 µM.
Same read-out and setting: then `CC(=O)Nc1nccc(-c2c3cccnc3n3c(N)nccc23)n1` [Compound 23d, N′-acetyldeoxyvariolin], with 3.2 µM; and `CC(=O)Nc1nccc(-c2c3cccnc3n3c(NC(C)=O)nccc23)n1` [Compound 23e, N′-acetyl-N-acetyldeoxyvariolin], with more than 28 µM; and `Nc1nccc2c(-c3ccnc(N(C(=O)/C=C/c4ccccc4)C(=O)/C=C/c4ccccc4)n3)c3cccnc3n12` [Compound 24a, N′-biscinnamoyldeoxyvariolin], with more than 120 µM.
Take `O=C(C=Cc1ccccc1)Nc1nccc2c(-c3ccnc(N(C(=O)/C=C/c4ccccc4)C(=O)/C=C/c4ccccc4)n3)c3cccnc3n12` [Compound 24b, N′-biscinnamoyl-N-cinnamoyldeoxyvariolin]: the CC50 is 75 µM.
In the case of `Nc1nccc2c(-c3ccnc(NC(=O)C(F)(F)F)n3)c3cccnc3n12` [Compound 26, N′-trifluoroacetyldeoxyvariolin], the CC50 was found to be 110 µM.
Same read-out and setting: under `COc1nccc(-c2c3cccnc3n3c(N)nccc23)n1` [Compound 27, methoxydeoxyvariolin] stands 34 µM; under `Nc1nccc2c(-c3ccnc(N4CCCCC4)n3)c3cccnc3n12` [Compound 28a, piperidinyldeoxyvariolin], more than 29 µM.
The same measure, in the same setting: then `CCNc1nccc(-c2c3cccnc3n3c(N)nccc23)n1` [Compound 28b, N′-ethyldeoxyvariolin], with more than 33 µM; and `CCCCN(C)c1nccc(-c2c3cccnc3n3c(N)nccc23)n1` [Compound 28c, N′-butylmethyldeoxyvariolin], with 23 µM; and `Nc1nccc2c(-c3ccnc(NCc4ccccc4)n3)c3cccnc3n12` [Compound 28d, N′-benzyldeoxyvariolin], with 22 µM.
Still for that read-out and setting: under `COc1ccc(CNc2nccc(-c3c4cccnc4n4c(NCc5ccc(OC)cc5)nccc34)n2)cc1` [Compound 29, N′,N-bis(p-methoxybenzyl)deoxyvariolin] stands more than 97 µM.

The data set is the same for the next values; noted with them: read-out: HT-29 GI50; Table 2; HT-29; 48 hours exposure, SRB.
Turning to bis-sulfinyldeoxyvariolin [Compound 20], the GI50 amounted to 110 µM.

For another data set, the system named is A-549. The data set can be described thus: SRB cell growth/viability assay, A-549.
Details: not given
From the text: as §1, §2, §3, §4
Compound bis-sulfinyldeoxyvariolin [Compound 20] displayed a CC50 of more than 130 µM.

Staying with this data set, now noted: Homo sapiens, A549, 48 h, read-out: A-549 GI50.
With `CS(=O)(=O)c1nccc(-c2c3cccnc3n3c(N)nccc23)n1` [Compound 6, sulfonyldeoxyvariolin], the 50% growth inhibitory concentration (GI50) came out at 4.4 µM.
Same read-out and setting: then `CSc1nccc(-c2c3cccnc3n3c(SC)nccc23)n1` [Compound 19], with 5.9 µM; and `C[S+]([O-])c1nccc(-c2c3cccnc3n3c(N)nccc23)n1` (stereo not drawn) [Compound 22, sulfinyldeoxyvariolin], with 1.2 µM; and `CC(=O)N(C(C)=O)c1nccc(-c2c3cccnc3n3c(N)nccc23)n1` [Compound 23a, N′-bisacetyldeoxyvariolin], with 0.28 µM.
As to `CC(=O)Nc1nccc2c(-c3ccnc(N(C(C)=O)C(C)=O)n3)c3cccnc3n12` [Compound 23b, N′-bisacetyl-N-acetyldeoxyvariolin], the concentration for 50% growth inhibition (GI50) was 0.74 µM.
`CC(=O)N(C(C)=O)c1nccc(-c2c3cccnc3n3c(N(C(C)=O)C(C)=O)nccc23)n1` [Compound 23c, N′-bisacetyl-N-bisacetyldeoxyvariolin]: the concentration for 50% growth inhibition (GI50) turned out to be 2.2 µM.
On to `CC(=O)Nc1nccc(-c2c3cccnc3n3c(N)nccc23)n1` [Compound 23d, N′-acetyldeoxyvariolin], for which the concentration for 50% growth inhibition (GI50) came to 0.63 µM.
Same read-out and setting: then `CC(=O)Nc1nccc(-c2c3cccnc3n3c(NC(C)=O)nccc23)n1` [Compound 23e, N′-acetyl-N-acetyldeoxyvariolin], with 2.2 µM; and `Nc1nccc2c(-c3ccnc(N(C(=O)/C=C/c4ccccc4)C(=O)/C=C/c4ccccc4)n3)c3cccnc3n12` [Compound 24a, N′-biscinnamoyldeoxyvariolin], with 0.12 µM; and `O=C(C=Cc1ccccc1)Nc1nccc2c(-c3ccnc(N(C(=O)/C=C/c4ccccc4)C(=O)/C=C/c4ccccc4)n3)c3cccnc3n12` [Compound 24b, N′-biscinnamoyl-N-cinnamoyldeoxyvariolin], with 3 µM.
The same measure, in the same setting: under `Nc1nccc2c(-c3ccnc(NC(=O)C(F)(F)F)n3)c3cccnc3n12` [Compound 26, N′-trifluoroacetyldeoxyvariolin] stands 0.27 µM; under `COc1nccc(-c2c3cccnc3n3c(N)nccc23)n1` [Compound 27, methoxydeoxyvariolin], 0.068 µM.
With `Nc1nccc2c(-c3ccnc(N4CCCCC4)n3)c3cccnc3n12` [Compound 28a, piperidinyldeoxyvariolin], the concentration for 50% growth inhibition (GI50) was 8.7 µM.
On the same count and under the same terms, under `CCNc1nccc(-c2c3cccnc3n3c(N)nccc23)n1` [Compound 28b, N′-ethyldeoxyvariolin] stands more than 33 µM; under `CCCCN(C)c1nccc(-c2c3cccnc3n3c(N)nccc23)n1` [Compound 28c, N′-butylmethyldeoxyvariolin], 2.9 µM.
On the same count and under the same terms, then `Nc1nccc2c(-c3ccnc(NCc4ccccc4)n3)c3cccnc3n12` [Compound 28d, N′-benzyldeoxyvariolin], with 1.4 µM; and `COc1ccc(CNc2nccc(-c3c4cccnc4n4c(NCc5ccc(OC)cc5)nccc34)n2)cc1` [Compound 29, N′,N-bis(p-methoxybenzyl)deoxyvariolin], with more than 97 µM.

Staying with this data set, now noted: Homo sapiens, A549, 48 h, read-out: A-549 LC50.
`CS(=O)(=O)c1nccc(-c2c3cccnc3n3c(N)nccc23)n1` [Compound 6, sulfonyldeoxyvariolin]: the CC50 was more than 150 µM.
On the same count and under the same terms, then `CSc1nccc(-c2c3cccnc3n3c(SC)nccc23)n1` [Compound 19], with 29 µM; and `C[S+]([O-])c1nccc(-c2c3cccnc3n3c(N)nccc23)n1` (stereo not drawn) [Compound 22, sulfinyldeoxyvariolin], with 92 µM.
The same measure, in the same setting: under `CC(=O)N(C(C)=O)c1nccc(-c2c3cccnc3n3c(N)nccc23)n1` [Compound 23a, N′-bisacetyldeoxyvariolin] stands 2.8 µM.
Still for that read-out and setting: then `CC(=O)Nc1nccc2c(-c3ccnc(N(C(C)=O)C(C)=O)n3)c3cccnc3n12` [Compound 23b, N′-bisacetyl-N-acetyldeoxyvariolin], with 7.4 µM; and `CC(=O)N(C(C)=O)c1nccc(-c2c3cccnc3n3c(N(C(C)=O)C(C)=O)nccc23)n1` [Compound 23c, N′-bisacetyl-N-bisacetyldeoxyvariolin], with 22 µM.
Take `CC(=O)Nc1nccc(-c2c3cccnc3n3c(N)nccc23)n1` [Compound 23d, N′-acetyldeoxyvariolin]: the CC50 was 3.2 µM.
Regarding `CC(=O)Nc1nccc(-c2c3cccnc3n3c(NC(C)=O)nccc23)n1` [Compound 23e, N′-acetyl-N-acetyldeoxyvariolin], the CC50 is 28 µM.
With `Nc1nccc2c(-c3ccnc(N(C(=O)/C=C/c4ccccc4)C(=O)/C=C/c4ccccc4)n3)c3cccnc3n12` [Compound 24a, N′-biscinnamoyldeoxyvariolin], the CC50 came out at 12 µM.
On the same count and under the same terms, under `O=C(C=Cc1ccccc1)Nc1nccc2c(-c3ccnc(N(C(=O)/C=C/c4ccccc4)C(=O)/C=C/c4ccccc4)n3)c3cccnc3n12` [Compound 24b, N′-biscinnamoyl-N-cinnamoyldeoxyvariolin] stands 75 µM; under `Nc1nccc2c(-c3ccnc(NC(=O)C(F)(F)F)n3)c3cccnc3n12` [Compound 26, N′-trifluoroacetyldeoxyvariolin], 27 µM; under `COc1nccc(-c2c3cccnc3n3c(N)nccc23)n1` [Compound 27, methoxydeoxyvariolin], 2.7 µM.
For the compound `Nc1nccc2c(-c3ccnc(N4CCCCC4)n3)c3cccnc3n12` [Compound 28a, piperidinyldeoxyvariolin], the CC50 is more than 29 µM.
The same measure, in the same setting: under `CCNc1nccc(-c2c3cccnc3n3c(N)nccc23)n1` [Compound 28b, N′-ethyldeoxyvariolin] stands more than 33 µM; under `CCCCN(C)c1nccc(-c2c3cccnc3n3c(N)nccc23)n1` [Compound 28c, N′-butylmethyldeoxyvariolin], 23 µM; under `Nc1nccc2c(-c3ccnc(NCc4ccccc4)n3)c3cccnc3n12` [Compound 28d, N′-benzyldeoxyvariolin], 27 µM.
The same measure, in the same setting: under `COc1ccc(CNc2nccc(-c3c4cccnc4n4c(NCc5ccc(OC)cc5)nccc34)n2)cc1` [Compound 29, N′,N-bis(p-methoxybenzyl)deoxyvariolin] stands more than 97 µM.

The data set is the same for the next values; noted with them: read-out: A-549 GI50; Table 2; A-549; 48 hours exposure, SRB.
On to bis-sulfinyldeoxyvariolin [Compound 20], for which the GI50 amounted to 54 µM.
